Laboratory results from patent US20230346670A1, “Prebiotic Oral Care Compositions and Methods” (Colgate-Palmolive Company, priority 2020, published 2023).

Tests used:
Type in all cases: cell-based
A. actinomycetemcomitans = test: Multi-species biofilm composition, absolute abundance (Geq/mL); conditions: repeated rinsing
Experimental: (§1) Biofilms are grown vertically on Calcium Deficient Hydroxyapatite (CAD-HA) disks (Hitemco Medical, Old Bethpage, USA) using the Amsterdam Active Adhesion model. Biofilms are allowed to establish during 24 h (37° C., 170 rpm) under microaerophilic conditions (6% O2, 7% CO2, 7% H2, 80% N2). After this 24 h, disks are rinsed 3 times a day for 3 minutes (RT, 250 rpm), for 3 consecutive days, by transferring the lid containing the disks to a new 24-well plate containing 2 mL/well of the appropriate substrate solution. As a negative control, PBS (pH 5.7) without substrate supplementation is used.
(§2) N-acetyl-D-glucosamine (NADG), α-D-lactose, D-(+)-trehalose and D-(+)-raffinose are selected to determine their effects on multi-species biofilm composition. Repeated rinsing of the biofilms with the substrates at a concentration of 1 M results in a significant decrease in absolute numbers in at least four of the pathogenic bacterial species tested in the assay, in comparison to the control, the results of which are described in Table 1 below. Note, NADG decreased absolute numbers of S. sobrinus. Absolute abundances of bacterial species are shown as mean ± SD (n = 3) logarithmic values of the genome equivalents per millilitre (log(Geq/mL)).

P. gingivalis = test: as above; conditions: repeated rinsing
Experimental: as §1, §2

S. gordonii = test: as above; conditions: repeated rinsing
Experimental: as §1, §2

S. mitis = test: as above; conditions: repeated rinsing
Experimental: as §1, §2

S. oralis = test: as above; conditions: repeated rinsing
Experimental: as §1, §2

P. intermedia = test: as above; conditions: repeated rinsing
Experimental: as §1, §2

A. naeslundii = test: as above; conditions: repeated rinsing
Experimental: as §1, §2

S. sobrinus = test: as above; conditions: repeated rinsing
Experimental: as §1, §2

F. nucleatum = test: as above; conditions: repeated rinsing
Experimental: as §1
as §2, with “Repeated rinsing of the biofilms with the substrates at a concentration of 1 M results in a significant” left out

S. sanguinis = test: as above; conditions: repeated rinsing
Experimental: as §1
as §2, with “Repeated rinsing of the biofilms with the substrates at a concentration of 1 M results in a significant” left out

S. salivarius = test: as above; conditions: repeated rinsing
Experimental: as §1
as §2, with “Repeated rinsing of the biofilms with the substrates at a concentration of 1 M results in a significant” left out

A. viscosus = test: as above; conditions: for absolute abundance of A. viscosus (Av), mean ± SD log (Geq/mL): repeated rinsing
Experimental: as §1
as §2, with “Repeated rinsing of the biofilms with the substrates at a concentration of 1 M results in a significant” left out

S. mutans = test: as above; conditions: repeated rinsing
Experimental: as §1
as §2, with “Repeated rinsing of the biofilms with the substrates at a concentration of 1 M results in a significant” left out

V. parvula = test: as above; conditions: for absolute abundance of V. parvula (VP), mean ± SD log (Geq/mL): repeated rinsing
Experimental: as §1
as §2, with “Repeated rinsing of the biofilms with the substrates at a concentration of 1 M results in a significant” left out

multi-species biofilms = test: Organic acid levels in supernatant of multi-species biofilms (ion chromatography); conditions: substrate 1% (w/v); >0 production, <0 consumption; n = 3
Experimental: as §1
Levels of organic acids in the filter sterilized supernatant of the multi-species biofilms are measured using a 761 Compact Ion Chromatograph (Metrhohm, Switzerland) with a Metrosep Organic acids Guard/4.6 guard column. The supernatants from the substrate-treated multi-species biofilms are analyzed to gain more insight into the influence of the substrates on organic acid consumption/production.

For `OC[C@H]1O[C@H](O[C@H]2O[C@H](CO)[C@@H](O)[C@H](O)[C@H]2O)[C@H](O)[C@@H](O)[C@@H]1O` [D-trehalose, D-(+)-trehalose], the “absolute abundance of A. actinomycetemcomitans (Aa), mean ± SD log (Geq/mL)” value (A. actinomycetemcomitans; substrate 1% (w/v)) was 9.28 ± 0.43 log (Geq/mL), the “absolute abundance of A. actinomycetemcomitans (Aa), mean ± SD log (Geq/mL)” value (A. actinomycetemcomitans; substrate 1 M in PBS, n = 3) was 7.86 ± 0.22^∗ log (Geq/mL) and the “absolute abundance of P. gingivalis (Pg), mean ± SD log (Geq/mL)” value (P. gingivalis; substrate 1% (w/v)) was 7.05 ± 0.19 log (Geq/mL). For the same compound, the “absolute abundance of P. gingivalis (Pg), mean ± SD log (Geq/mL)” value (P. gingivalis; substrate 1 M in PBS, n = 3) was 4.37 ± 0.29^∗ log (Geq/mL), the “absolute abundance of S. gordonii, mean ± SD log (Geq/mL)” value (S. gordonii; substrate 1% (w/v)) was 8.45 ± 0.27 log (Geq/mL) and the “absolute abundance of S. gordonii, mean ± SD log (Geq/mL)” value (S. gordonii; substrate 1 M in PBS, n = 3) was 9.39 ± 0.31 log (Geq/mL). For the same compound, the “absolute abundance of S. mitis, mean ± SD log (Geq/mL)” value (S. mitis; substrate 1% (w/v)) was 2.65 ± 0.00 log (Geq/mL), the “absolute abundance of S. mitis, mean ± SD log (Geq/mL)” value (S. mitis; substrate 1 M in PBS, n = 3) was 3.15 ± 0.71 log (Geq/mL) and the “absolute abundance of S. oralis, mean ± SD log (Geq/mL)” value (S. oralis; substrate 1% (w/v)) was 6.59 ± 0.42 log (Geq/mL). For the same compound, the “absolute abundance of S. oralis, mean ± SD log (Geq/mL)” value (S. oralis; substrate 1 M in PBS, n = 3) was 6.71 ± 0.48 log (Geq/mL), the “absolute abundance of P. intermedia (Pi), mean ± SD log (Geq/mL)” value (P. intermedia; substrate 1% (w/v)) was 7.88 ± 0.33 log (Geq/mL) and the “absolute abundance of P. intermedia (Pi), mean ± SD log (Geq/mL)” value (P. intermedia; substrate 1 M in PBS, n = 3) was 4.47 ± 0.60^∗ log (Geq/mL). The “absolute abundance of A. naeslundii (An), mean ± SD log (Geq/mL)” value (A. naeslundii; substrate 1% (w/v)) was 7.6 ± 0.15 log (Geq/mL), the “absolute abundance of A. naeslundii (An), mean ± SD log (Geq/mL)” value (A. naeslundii; substrate 1 M in PBS, n = 3) was 4.81 ± 0.47^∗ log (Geq/mL) and the “absolute abundance of S. sobrinus, mean ± SD log (Geq/mL)” value (S. sobrinus; substrate 1% (w/v)) was 5.27 ± 0.19 log (Geq/mL). For the same compound, the “absolute abundance of S. sobrinus, mean ± SD log (Geq/mL)” value (S. sobrinus; substrate 1 M in PBS, n = 3) was 7.44 ± 0.18^∗ log (Geq/mL), the “absolute abundance of F. nucleatum (Fn), mean ± SD log (Geq/mL)” value (F. nucleatum; substrate 1% (w/v)) was 9.35 ± 0.20 log (Geq/mL) and the “absolute abundance of F. nucleatum (Fn), mean ± SD log (Geq/mL)” value (F. nucleatum; substrate 1 M in PBS, n = 3) was 6.51 ± 0.43^∗ log (Geq/mL). For the same compound, the “absolute abundance of S. sanguinis, mean ± SD log (Geq/mL)” value (S. sanguinis; substrate 1% (w/v)) was 8.42 ± 0.43 log (Geq/mL), the “absolute abundance of S. sanguinis, mean ± SD log (Geq/mL)” value (S. sanguinis; substrate 1 M in PBS, n = 3) was 6.43 ± 0.97 log (Geq/mL) and the “absolute abundance of S. salivarius, mean ± SD log (Geq/mL)” value (S. salivarius; substrate 1% (w/v)) was 2.65 ± 0.00 log (Geq/mL). The “absolute abundance of S. salivarius, mean ± SD log (Geq/mL)” value (S. salivarius; substrate 1 M in PBS, n = 3) was 6.19 ± 0.07^∗ log (Geq/mL), the “absolute abundance of A. viscosus (Av), mean ± SD log (Geq/mL)” value (A. viscosus; substrate 1% (w/v)) was 8.04 ± 0.28 log (Geq/mL) and the “decrease in A. viscosus numbers in comparison to the control” value (A. viscosus; substrate 1 M) was 1.9-2.5 log(Geq/mL). For the same compound, the “absolute abundance of A. viscosus (Av), mean ± SD log (Geq/mL)” value (A. viscosus; substrate 1 M in PBS, n = 3) was 6.05 ± 1.12^∗ log (Geq/mL), the “absolute abundance of S. mutans, mean ± SD log (Geq/mL)” value (S. mutans; substrate 1% (w/v)) was 7.55 ± 0.25 log (Geq/mL) and the “absolute abundance of S. mutans, mean ± SD log (Geq/mL)” value (S. mutans; substrate 1 M in PBS, n = 3) was 8.50 ± 0.29^∗ log (Geq/mL). The “absolute abundance of V. parvula (VP), mean ± SD log (Geq/mL)” value (V. parvula; substrate 1% (w/v)) was 10.07 ± 0.28 log (Geq/mL), the “reduction of V. parvula numbers in comparison to the control” value (V. parvula; substrate 1 M) was ~ 0.7 log(Geq/mL) and the “absolute abundance of V. parvula (VP), mean ± SD log (Geq/mL)” value (V. parvula; substrate 1 M in PBS, n = 3) was 9.44 ± 0.25^∗ log (Geq/mL). The “acetate level in biofilm supernatant, mean ± SD” value (multi-species biofilms) was 303 ± 13 mg/L, the “butyrate level in biofilm supernatant, mean ± SD” value (multi-species biofilms) was 1945 ± 9 mg/L and the “formate level in biofilm supernatant, mean ± SD” value (multi-species biofilms) was 3691 ± 89 mg/L.
